# Source: US20260055083A1, “APOL1 INHIBITORS AND METHODS OF USE” (Maze Therapeutics, Inc., priority 2022, published 2026)
# Key:
# [1] = target: T1, APOL1 G2 (Homo sapiens, UniProt O14791, DEL388-389); assay: APOL1 G2 FLIPR calcium influx assay (HEK T-REx/GCaMP6f/APOL1 G2 K6.3 cells); format: cell-based; settings: HEK293 clone expressing GCaMP6f, doxycycline-induced APOL1 G2; prevention of calcium influx; geometric mean of at least 2 assay runs
# T1 construct: expressed in transfected cells; host or cells: HEK293/T-REx APOL1 G2 clone #2, doxycycline-inducible
# T1 sequence (O14791 with tags, fused parts or gaps DEL388-389): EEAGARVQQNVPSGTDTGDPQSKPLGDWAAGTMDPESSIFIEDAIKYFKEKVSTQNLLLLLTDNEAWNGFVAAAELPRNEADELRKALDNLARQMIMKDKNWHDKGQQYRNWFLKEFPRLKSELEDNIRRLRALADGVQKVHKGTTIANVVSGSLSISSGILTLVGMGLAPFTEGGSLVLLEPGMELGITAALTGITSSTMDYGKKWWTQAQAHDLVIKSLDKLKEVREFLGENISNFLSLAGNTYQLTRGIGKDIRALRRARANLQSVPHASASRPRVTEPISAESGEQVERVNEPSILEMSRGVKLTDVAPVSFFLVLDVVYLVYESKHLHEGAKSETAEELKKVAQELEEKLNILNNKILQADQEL
# Method: A HEK293 clonal cell line was generated to stably express GCaMP6f, a genetically encoded calcium indicator, and inducibly express APOL1 G2 (HEK T-REx/GCaMP6f/APOL1 G2 K6.3). Cells were maintained in the following standard complete medium: DMEM with 4.5 g/L glucose and sodium pyruvate (BioWhittaker, Lonza, BE12-614F), supplemented with 10% FBS Performance Plus (Gibco, 16000044), 1% penicillin-streptomycin (BioWhittaker, DE17-602E), 2 mM ultraglutamine-1 (BioWhittaker cat. BE 17-605/U1), 50 μg/mL Zeocin (InvivoGen, ant-zn), 2.5 μg/mL Blasticidin (InvivoGen, ant-bl-5), and 25 μg/mL Hygromycin (InvivoGen, ant-hg). Standard propagation conditions consisted of plating 9×10^6, 4×10^6, 2×10^6 cells in a T225 flasks to be processed after 2, 3, or 4 days, respectively.
# A source plate was generated containing 20 serially diluted compounds in DMSO (duplicate 8-point dose response). Next, 0.8 μL of compounds were transferred from the source plate to a destination plate prefilled with 79.2 μL of Ca^2+ free Tyrode's buffer (130 mM NaCl, 5 mM KCl, 1 mM MgCl2, 5 mM NaHCO3, 20 mM HEPES at pH 7.4). The destination plate was placed on a plate shaker (5 seconds at 2000 rpm) to mix. […] All transfer and mixing steps were conducted with an CyBi®-Well dispenser.
# Cells were split by gently washing with DPBS (Euroclone, ECB4004L), followed by a 5-minute incubation (humidified, 37° C. with 5% CO2) with trypsin-EDTA solution (Euroclone, ECB3052D). Detached cells were diluted with standard complete medium without selective agents, counted, and plated in a 384 MTP microplate (GR4332CPL, Twin Helix) (10,000 cells/well in 25 μl/well) using a MATRIX WellMate dispenser. Plates were placed into a humidified incubator (37° C. with 5% CO2) overnight. The following day, 20 μL of doxycycline (Sigma, D9891) at 20 ng/mL in standard complete medium was added to cells with a CyBi®Drop dispenser to induce APOL1 G2 expression. After a 6-hour incubation (humidified, 37° C. with 5% CO2), cells were washed 3 times with Ca^2+ free Tyrode's Buffer (130 mM NaCl, 5 mM KCl, 1 mM MgCl2, 5 mM NaHCO3, 20 mM HEPES at pH 7.4) using a BIOTEK Microplate washer, such that 10 μL of buffer remained in each well after the final wash. Assay plates were then stored at room temperature for 10 minutes. Next, 10 μL of diluted compounds were transferred to the assay plate from the 2× compound plate using a CyBi®-Well dispenser. Compound incubation was then carried out at room temperature for 10 minutes. The assay plate was transferred to the […] and 20 μL of 10 mM Ca^2+ (final concentration=5 mM) Tyrode's buffer was injected.
# Table B1 below summarizes the data from this experiment. Unless otherwise specified, AC50 and values are reported as the geometric mean of at least 2 assay runs on separate days. Each run represents the average of a technical replicate, where each compound was assayed twice in the same plate. A superscript t symbol indicates a value from the average of a technical replicate from a single assay run, where each compound was assayed twice in the same plate.
# The AC50 values in Table B1 below reflect the compound's ability to prevent calcium influx by inhibiting APOL1. […] Compounds in Table B1 are referred to by the corresponding Compound Number in Table 1, which is also referred to in the synthetic examples. When one or more of the numbered compounds are identified by stereochemistry (for example, (R)- or (S)-), the specific stereoisomer for which data is provided in Table B1 may be identified by the elution order of such compound as described in the synthetic examples. To illustrate, Compound 2 is the first-eluting enantiomer of step 4 of Example 1 and Compound 3 is the second-eluting enantiomer of step 4 of Example 1. Further, by way of illustration, Compound 27 is the first-eluting enantiomeric mixture in step 4 of Example 7 and Compound 28 is the second-eluting enantiomeric mixture in step 4 of Example 7. […]
# [2] = target: T1, APOL1 G2; assay: APOL1 G2 HEK293 rescue of cell death caused by overexpression of APOL1 (CellTiter-Glo); format: cell-based; settings: HEK293/T-REx APOL1 G2 clone #2, doxycycline induction, 17 hours, CellTiter-Glo luminescence; reversal of cell death; geometric mean of at least 2 assay runs
# Method: A HEK293 clonal cell line overexpressing APOL1 G2 (HEK293/T-REx APOL1 G2/clone #2) was maintained in 1×DMEM-GlutaMax (Gibco, 10569-010) media with 10% tetracycline-free FBS (Takara Bio USA, 631101), 5 μg/mL Blasticidin (Gibco, A1113903), and 100 μg/mL Zeocin (Invitrogen, R25001) in T75 flasks. In preparation for the assay, this media was aspirated and 2 mL of prewarmed TrypLE Express (Gibco, 12605-010) was added to a flask to detach cells. The flask was then incubated (humidified, 37° C. with 5% CO2) for 3-5 minutes. Afterwards, 8 mL of prewarmed cell assay media (1×DMEM-GlutaMax media with 10% tetracycline-free FBS) was added to the trypsinized cells. The suspension was gently mixed, and cells were counted using a Countess Cell Counting Chamber (Invitrogen). The suspension was diluted using cell assay media to generate a working stock solution (166,667 cells/mL). Using a MultiDrop Combi (Thermo Electron Corp), 30 μL (final cell density=5,000 cells/well) of the working stock solution was dispensed into each well of white 384-well assay ready plates (Nunc™, 164610) containing 6 ng/mL doxycycline, to induce APOL1 expression, and compound. All compounds were plated in a duplicate 8-point dilution series that consisted of 3-fold stepwise dilutions (0.5% DMSO final). Assay plates were incubated (humidified, 37° C. with 5% CO2) for 17 hours. After the incubation, the plates were equilibrated at room temperature for 1 hour. Next, 15 μl of CellTiter-Glo® reagent (Promega, G7570) was added to each well using a MultiDrop Combi. Plates were placed on an orbital shaker (500 rpm) for 5 minutes to induce cell lysis and then incubated at room temperature for 10 minutes. Luminescence was measured on an Envision plate reader. Collaborative Drug Discovery software was utilized for graphing data. Plots were generated using a four parameter logistic curve fit.
# Table B2 below provides the results from this experiment. Unless otherwise specified, EC50 values are reported as the geometric mean of at least 2 assay runs on separate days. Each run represents the average of a technical replicate, where each compound was assayed twice in the same plate. A superscript t symbol indicates a value from the average of a technical replicate from a single assay run, where each compound was assayed twice in the same plate. Compounds in Table B2 are referred to by the corresponding Compound Number in Table 1, which is also referred to in the synthetic examples. When one or more of the numbered compounds are identified by stereochemistry (for example, (R)- or (S)-), the specific stereoisomer for which data is provided in Table B2 may be identified by the elution order of such compound as described in the synthetic examples. To illustrate, Compound 2 is the first-eluting enantiomer of step 4 of Example 1 and Compound 3 is the second-eluting enantiomer of step 4 of Example 1. Further, by way of illustration, Compound 27 is the first-eluting enantiomeric mixture in step 4 of Example 7 and Compound 28 is the second-eluting enantiomeric mixture in step 4 of Example 7. Then, Compound 27 is separated into Compound 29 (the first-eluting enantiomer) and Compound 30 (the second-eluting enantiomer) in Example 8, and Compound 28 is separated into Compound 31 (the first-eluting enantiomer) and Compound 32 (the second-eluting enantiomer) in Example 8. Absolute stereochemistry of such compounds may be identified by methods known in the art.
# Rescue EC50 values reported in Table B2 below represent the half-maximal effective concentration for reversal of cell death caused by overexpression of APOL1.
Structure (SMILES),AC50 [1] [nM],EC50 [2] [nM]
"CC(Cc1cc(Cl)cc(C#N)c1)N1C[C@@H](COc2ccc(S(C)(=O)=O)cc2)[C@H](C)C1 (single isomer, unassigned) [Compound 19, 3-chloro-5-[(2R or 2S)-2-[(3S,4S)-3-[(4-methanesulfonylphenoxy)methyl]-4-methylpyrrolidin-1-yl]propyl]benzonitrile]",444,640
"C[C@@H]1C[C@H](COc2ccc(S(=O)(=O)CCO)cc2)CN1C1CCc2c(C#N)cc(Cl)cc2C1 (stereo partly drawn) [Compound 55, 3-chloro-6-[(2R,4S)-4-{[4-(2-hydroxyethanesulfonyl)phenoxy]methyl}-2-methylpyrrolidin-1-yl]-5,6,7,8-tetrahydronaphthalene-1-carbonitrile]",876,240
"CS(=O)(=O)c1ccc(OC[C@@H]2CCCN(C3CCc4ccc(Cl)cc4C3)C2)cc1 (single isomer, unassigned) [Compound 132, (3R)-1-[(2S or 2R)-7-chloro-1,2,3,4-tetrahydronaphthalen-2-yl]-3-[(4-methanesulfonylphenoxy)methyl]piperidine]",446,924
"C[C@@H]1CN(C2CCc3ccc(Cl)cc3C2)C[C@H]1COc1ccc(S(C)(=O)=O)cc1 (stereo partly drawn) [Compound 14, (3S,4S)-1-[7-chloro-1,2,3,4-tetrahydronaphthalen-2-yl]-3-[(4-methanesulfonylphenoxy)methyl]-4-methylpyrrolidine]",767,544
"C[C@@H]1CN(CC(O)c2cccc(Cl)c2)C[C@H]1COc1ccc(S(C)(=O)=O)cc1 (single isomer, unassigned) [Compound 91, (1R) or (1S)-1-(3-chlorophenyl)-2-[trans-3-[(4-methanesulfonylphenoxy)methyl]-4-methylpyrrolidin-1-yl]ethan-1-ol]",,1610
"CN=S(C)(=O)c1ccc(OC[C@H]2C[C@@H](C)N(C3CCc4ccc(C#N)cc4C3)C2)cc1 (single isomer, unassigned) [Compound 37, (7R or 7S)-7-[(2R,4S)-2-methyl-4-({4-[methyl(methylimino)oxo-λ^6-sulfanyl]phenoxy}methyl)pyrrolidin-1-yl]-5,6,7,8-tetrahydronaphthalene-2-carbonitrile]",,769
"C[C@@H]1C[C@H](COc2ccc(S(=O)(=O)C3CNC3)cc2)CN1C1CCc2ccc(C#N)cc2C1 (single isomer, unassigned) [Compound 28]",,401
"C[C@H]1CN(CCc2cccc(Cl)c2)C[C@@H]1COc1ccc(S(C)(=O)=O)cc1 [Compound 92, (3R,4R)-1-[2-(3-chlorophenyl)ethyl]-3-[(4-methanesulfonylphenoxy)methyl]-4-methylpyrrolidine]",,2070
"C[C@@H]1CN(CCc2cccc(C#N)c2)C[C@H]1COc1cc(F)c(S(C)(=O)=O)c(F)c1 [Compound 81, 3-{2-[(3S,4S)-3-[(3,5-difluoro-4-methanesulfonylphenoxy)methyl]-4-methylpyrrolidin-1-yl]ethyl}benzonitrile]",,144
"C[C@@H]1C[C@H](COc2ccc(S(=O)(=O)C3CNC3)cc2)CN1C1CCc2ccc(C#N)cc2C1 (single isomer, unassigned) [Compound 29]",,58.4
"Cc1cc(OC[C@@H]2CN(CCc3cccc(C#N)c3)C[C@H]2C)cnc1S(C)(=O)=O [Compound 87, 3-{2-[(3S,4S)-3-{[(6-methanesulfonyl-5-methylpyridin-3-yl)oxy]methyl}-4-methylpyrrolidin-1-yl]ethyl}benzonitrile]",,185
"C[C@@H]1C[C@H](COc2ccc(S(=O)(=O)C3CNC3)cc2)CN1C1CCc2ccc(C#N)cc2C1 (single isomer, unassigned) [Compound 27]",,145
"COC(=O)CCCS(=O)(=O)c1ccc(OC[C@@H]2CN(CCc3cccc(Cl)c3)C[C@H]2C)cc1 [Compound 79, methyl 4-(4-{[(3S,4S)-1-[2-(3-chlorophenyl)ethyl]-4-methylpyrrolidin-3-yl]methoxy}benzenesulfonyl)butanoate]",,334
